According to PMC5520057, “Modulation of nongenomic activation of PI3K signalling by tetramerization of N-terminally-cleaved RXRα” (Nature Communications, 2017):

Experiments:
RXRα = experiment: MMTV-PyMT tumours, RXRα immunostaining; type: in vivo, MMTV-PyMT mice; conditions: diet with K-80003 (100 mg kg^−1) for 4 weeks; Δ197 anti-RXRα antibody
Method: Cells mounted on glass slides or tumour tissue frozen sections (5-μm-thick) were washed with PBS and fixed in 4% paraformaldehyde (PFA) for 15 min and permeabilized with PBS containing 0.1% Triton X-100 for 15 min. Fixed cells or tumour tissues were blocked with 5 mg ml^−1 BSA in PBS for 30 min at room temperature, followed with incubation with primary antibodies for 3 h and secondary antibodies at room temperature for 1 h and co-stained with 4′6′-diamidino-2-phenylindole (DAPI) to visualize nuclei. The images were taken under an LSM-510 confocal laser scanning microscope system (Carl Zeiss).
(§1) For nude mice xenograft study, Myc-RXRα and Myc-tRXRα cloned into pcdna3.0 vector were stably transfected into MCF-7 cells, and the resulting stable clones and control clone (2 × 10^6 cells in 100 μl) were injected subcutaneously into nude mice (BALB/c, SPF grade, 16–18 g, 4–5-week old). For drug treatment, mice were intraperitoneally injected (i.p.) daily with K-80003 (20 mg kg^−1) diluted in Tween-80 or vehicle (tween-80). Body weight and tumour size were measured every 2 days. Mice were killed after 12-day drug treatment and the tumours removed for various assessments. […]

MMTV-PyMT mammary tumour = experiment: MMTV-PyMT tumours, Ki-67 immunostaining; type: in vivo, MMTV-PyMT mice; conditions: diet with K-80003 (100 mg kg^−1) for 4 weeks; Ki-67 positive cells scored from 500 cells
Method: as §1, with “assessments. For MMTV-PyMT transgenic mouse study, 4-week old female mice of a transgenic mouse on the FVB/N genetic background expressing the PyMT oncogene under the control of MMTV LTR promoter[40] were fed with diet containing with or without K-80003 (100 mg kg^−1) for 4 weeks. Estimation of tumour appearance was performed by palpation once every day. Tumour tissues of left thoracic mammary glands were excised after the treatment.” for “assessments.”
(a) Expression of tRXRα in MMTV-PyMT mammary tumors analyzed by Western blotting using ΔN197 anti-RXRα antibody.
(b) Tumor sections from MMTV-PyMT mice fed with vehicle or K-80003 were immunostained with anti-Ki-67 antibody. Ki-67 positive cells were scored from 500 cells. […]

RXRα-LBD [1] = biological target: T1, RXRα-LBD (Homo sapiens, UniProt P19793); experiment: Gel filtration chromatography, RXRα-LBD; type: biochemical; conditions: HiLoad 16/600 Superdex 200 pg, 50 mM Tris-Cl (pH 7.4), 200 mM NaCl, 1 ml min^−1; 2 h incubation; one of three similar experiments
T1 construct: The human RXRα LBD (residues Thr223 to Thr462); made in house; host or cells: Escherichia coli BL21
T1 sequence (P19793 223-462): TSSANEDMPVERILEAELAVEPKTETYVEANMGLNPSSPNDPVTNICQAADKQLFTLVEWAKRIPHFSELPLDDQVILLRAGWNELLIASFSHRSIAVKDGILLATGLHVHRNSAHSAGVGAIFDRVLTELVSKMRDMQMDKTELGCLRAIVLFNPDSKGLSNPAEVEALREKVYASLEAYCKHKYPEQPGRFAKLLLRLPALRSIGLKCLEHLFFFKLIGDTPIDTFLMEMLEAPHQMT
Method: (§2) The human RXRα LBD (residues Thr223 to Thr462) cloned as an N-terminal histidine-tagged fusion protein in pET15b expression vector was expressed in Escherichia coli BL21 strain (Stratagene). After sonication, cell extract was incubated with the His60 Ni Superflow resin, and His-tagged RXRα-LBD-resin complexes were washed, eluted and concentrated to 5 mg ml^−1 for subsequent trails. For crystallization experiment, bovine thrombin (Sigma) was used to cleave the His tag from the purified His-tagged RXRα-LBD. The resulting His tag was removed on the Resource-Q column (GE) using 0.1–1 M NaCl gradient and the Tris-Cl pH 8 buffer. RXRα-LDB was further purified using gel filtration on a Superdex 200 2660 column (GE) pre-equilibrated with the 75 mM NaCl, 20 mM Tris-Cl buffer (pH 8).

tRXRα/F313A = experiment: BS3 crosslinking, tRXRα/F313A; type: cell-based; conditions: MCF-7 cells, 9-cis-RA (10^−7 M) or K-80003 (5 × 10^−6 M) for 6 h
Method: (§3) Cell lysates were then prepared and incubated with bis[sulfosuccinimidyl] suberate (BS3, Pierce) dissolved in dimethyl sulfoxide to a final concentration of 1 mM. The reactions were stopped with protein gel loading buffer. Samples were resolved by SDS/PAGE in 8% acrylamide gels and protein bands were visualized by western blotting.

p85α / tRXRα interaction = system: p85α / tRXRα interaction; set-up: method as in PMID 20541701; conditions: cited from earlier work
tRXRα = experiment: Nuclear/cytoplasmic fractionation with BS3 crosslinking; type: cell-based; conditions: HEK293T cells, K-80003 (5 × 10^−6 M) for 6 h, one of three similar experiments
Method: as §3
Proteins or cell lysates were electrophoresed by SDS-PAGE gel and transferred to polyvinylidene difluoride (PVDF) membrane. The membranes were blocked with 5% skimmed milk in TBST (50 mM Tris-HCl (pH 7.4), 150 mM NaCl and 0.1% Tween20) for 1 h, then incubated with primary antibodies and secondary antibodies and detected using ECL system (Thermo). The dilutions of the primary antibodies were anti-RXRα (ΔN197, Santa Cruz) in 1:1,000, anti-PARP (H-250, Santa Cruz) in 1:3,000, anti-p85α (Millipore) in 1:1,000, anti-p-AKT (D9E, Cell Signaling Technology) in 1:1000, anti-AKT1/2/3 (H-136, Santa Cruz) in 1:1,000, anti-β-actin (Sigma) in 1:5,000, anti-c-myc (9E10, Santa Cruz) in 1:3,000, anti-HA (F-7, Santa Cruz) in 1:3,000, anti-Flag (F1804, Sigma) in 1:3,000. Images of all uncropped western blots can be found in Supplementary Figs 10–14.

RXRα-LBD [2] = experiment: BS3 crosslinking, transfected RXRα-LBD; type: cell-based; conditions: HepG2 cells; 9-cis-RA (10^−7 M) or K-80003 (5 × 10^−6 M) for 6 h; BS3 1 mM; western blotting
Method: as §3

PyMT mammary tumour = experiment: MMTV-PyMT transgenic mice, mammary tumour; type: in vivo; conditions: 4-week old MMTV-PyMT mice; diet with K-80003 (100 mg kg^−1) for 4 weeks
Method: For nude mice xenograft study, Myc-RXRα and Myc-tRXRα cloned into pcdna3.0 vector were stably transfected into MCF-7 cells, and the resulting stable clones and control clone (2 × 10^6 cells in 100 μl) were injected subcutaneously into nude mice (BALB/c, SPF grade, 16–18 g, 4–5-week old). For drug treatment, mice were intraperitoneally injected (i.p.) daily with K-80003 (20 mg kg^−1) diluted in Tween-80 or vehicle (tween-80). Body weight and tumour size were measured every 2 days. Mice were killed after 12-day drug treatment and the tumours removed for various assessments. For MMTV-PyMT transgenic mouse study, 4-week old female mice of a transgenic mouse on the FVB/N genetic background expressing the PyMT oncogene under the control of MMTV LTR promoter[40] were fed with diet containing with or without K-80003 (100 mg kg^−1) for 4 weeks. Estimation of tumour appearance was performed by palpation once every day. Tumour tissues of left thoracic mammary glands were excised after the treatment. Portion of tissues was used to prepare extracts for western blotting, while the rest was fixed in 4% phosphate-buffered paraformaldehyde, and used for immunohistochemical staining using anti-Ki67 antibody and immunostaining using Δ197 anti-RXRα antibody. All experimentations and animal usage were performed and approved by the Animal Care and Use Committee of Xiamen University.

RXRα-LBD/R316E = experiment: Non-denaturing gel electrophoresis, R316E mutant; type: biochemical, human; conditions: 9-cis-RA (0.5 μM) or K-80003 (20 μM), 3 h at 4 °C
Method: as §2

SMILES: CC1=C(CC(=O)O)c2cc(F)ccc2/C1=C\c1ccc(C(C)C)cc1 [K-80003]
- RXRα staining localization in PyMT tumours (RXRα): mainly found in the nucleus
- tumour cell proliferation (Ki-67) (MMTV-PyMT mammary tumour): inhibition of tumour cell proliferation
- oligomeric state of RXRα-LBD by gel filtration (RXRα-LBD [1]): mainly existed as a tetramer
- oligomeric state of tRXRα/F313A (tRXRα/F313A): strong tetrameric species of tRXRα/R316E but not tRXRα/F313A independent of the presence of 9-cis-RA or K-80003
- inhibition of tRXRα interaction with p85α (p85α / tRXRα interaction): inhibits its interaction with p85α
- distribution of tetrameric tRXRα (tRXRα): found exclusively in the nuclear fraction
- crosslinked RXRα-LBD species (RXRα-LBD [2]): crosslinked species on SDS-PAGE gels of 25, 50 and 100 kDa, corresponding to monomer, dimer and tetramer of RXRα-LBD
- growth of PyMT mammary tumour (PyMT mammary tumour): potently inhibited the growth of PyMT mammary tumour
- effect on oligomeric state of RXRα-LBD/R316E (RXRα-LBD/R316E): exhibited mainly as a tetramer independent of the presence of either 9-cis-RA or K-80003
